Results: patent US10800732B2, “Substituted malonamides and their use as antibacterial drugs” (National Taiwan University, priority 2015, dated 2020)
In brackets after ≈: the same amount, converted by molar mass. Where two headings read alike, the source gives them in different places. Blank lines part the entries; values can stand above or below the compound they belong to.

Assays:
[1] = system: S. epidermidis ATCC 35984; experiment: MIC, S. epidermidis ATCC 35984; assay type: cell-based; settings: Staphylococcus epidermidis, ATCC35984; S. epidermidis ATCC 35984; read-out: MIC
[2] = system: S. epidermidis ATCC 12228; experiment: MIC, S. epidermidis ATCC 12228; assay type: cell-based; settings: Staphylococcus epidermidis, ATCC12228
S. aureus NCTC 8325 [3] = experiment: MIC, S. aureus NCTC 8325 (CLSI broth microdilution / agar dilution); assay type: cell-based, Staphylococcus aureus
MRSA ATCC 33592 = experiment: MIC, MRSA ATCC 33592; assay type: cell-based, methicillin-resistant Staphylococcus aureus; settings: Staphylococcus aureus
MRSA ATCC 49476 = experiment: MIC, MRSA ATCC 49476; assay type: cell-based, methicillin-resistant Staphylococcus aureus; settings: Staphylococcus aureus
S. aureus NCTC 8325 [4] = assay type: cell-based, Staphylococcus aureus; settings: for time to over 64-fold MIC change: sub-inhibitory concentration, serial passage
MRSA SCCmec VT = experiment: MIC, MRSA SCCmec VT; assay type: cell-based, methicillin-resistant Staphylococcus aureus; settings: Staphylococcus aureus
MRSA (ATCC 43300) [5] = experiment: Minimal biofilm eradication concentration, MRSA in the biofilm; assay type: cell-based, methicillin-resistant Staphylococcus aureus; settings: MRSA (ATCC 43300) in the biofilm
Protocol: A biofilm is composed of attached microorganisms enclosed in an extracellular polymeric substance matrix. Bacteria embedded in the biofilm are protected from antibiotic-mediated killing and the immune response. Reports have shown that biofilm formation is an important factor contributing to S. aureus infections of the skin, lung and indwelling medical devices such as catheters. Thus, the effect of SC5005 on MRSA in a biofilm was assayed.

MRSA (ATCC 43300) [6] = experiment: MIC, MRSA ATCC 43300; assay type: cell-based, methicillin-resistant Staphylococcus aureus; settings: Staphylococcus aureus
HEK-293 = experiment: Antiproliferative activity, HEK-293; assay type: cell-based, human; settings: HEK-293, antiproliferative
Protocol: (§1) In addition to the antibacterial activities, the cytotoxic effects of these malonate derivatives on human cancer cell lines were also assessed.

K-562 = experiment: Antiproliferative activity, K-562; assay type: cell-based, human; settings: K-562, antiproliferative
Protocol: as §1

S. aureus NCTC 8325 [7] = experiment: Intracellular ATP leakage (ATPlite one-step); assay type: cell-based, Staphylococcus aureus; settings: 4×MIC for 15 min
Protocol: FIG. 6. Intracellular ATP leakage of S. aureus treated with SC5005, SC5035 and antibiotics. […] Data was presented as percentage of intracellular ATP level to that of untreated bacteria cells (considered as 100%). Bars represent the mean, and error bars represent the SD (n=3). ***: p-value <0.001
To investigate whether SC5005 and SC5035 also act on bacterial cell membrane, intracellular ATP levels of S. aureus treated with SC5005, SC5035 and antibiotics for 15 min was determined by using ATPlite one-step assay kit.

S. aureus NCTC 8325 [8] = experiment: Biosynthesis of macromolecules (3H precursor incorporation); assay type: cell-based, Staphylococcus aureus; settings: 4×MIC for 1 h
Protocol: FIG. 5. Effect of SC5005 and SC5035 on the biosynthesis of macromolecules in S. aureus. […] Meanwhile, ofloxacin (1 mg/L), rifampicin (1 mg/L), erythromycin (2 mg/L), and vancomycin (2 mg/L) were used as control inhibitors for the biosynthesis of DNA, RNA, protein and cell wall, respectively. Data are means of three independent experiments. Error bars represent the SD.
To investigate the mode of action of SC5005, a new derivative, SC5035, with better selectivity of antibacterial activity over cytotoxicity was included in the assays. First, the impacts of these two compounds on the biosynthesis of important macromolecules, including DNA, RNA, protein and cell wall, in S. aureus NCTC 8325 were assessed. Bacteria cells were incubated with [^3H]thymidine to assess DNA synthesis, [^3H] uridine to assess RNA synthesis, [^3H] leucine to assess protein synthesis, and [^3H] N-Acetyl-D-glucosamine to assess cell wall synthesis. The ofloxacin, rifampicin, erythromycin and vancomycin were used as control inhibitor for DNA, RNA, protein, and cell wall biosynthesis, respectively. Inhibition of biosynthesis pathway was determined by a reduction in the radial isotope signal of bacteria.

human red blood cells = experiment: Hemolytic activity; assay type: cell-based; settings: 1 h, concentration up to 128-fold of MIC against S. aureus
Protocol: FIG. 9. Hemolytic activities of SC5005 and SC5035 on human red blood cell. Human red blood cells were incubated with SC5005 (A) and SC5035 (B) for 1 h followed by measuring the absorption of RBC released hemoglobin at 540 nm with microplate reader. Cell treated with 1% triton X-100 serves as positive control (P.C.; 100% hemolysis), and those treated with normal saline serves as negative control (N.C.) Bars represent the mean, and error bars represent the SD (n=3).
As data shown above, SC5005 and SC5035 can kill bacteria via forming pore in bacterial membrane. To see whether the pore-forming activity of these two compounds is specific for bacterial membrane, the hemolytic activities of these two agents on human red blood cells were accessed.

Human HT-29 cells = experiment: LDH release assay (membrane integrity); assay type: cell-based; settings: 1 hour, concentration up to 128-fold of MIC against S. aureus
Protocol: FIG. 10. Membrane integrity of human cells treated with SC5005 and SC5035. Human HT-29 cells were treated with SC5005 and SC5035 for 1 hour followed by the evaluation of membrane integrity with LDH release assay. LDH released from HT-29 cells into culture medium was assessed by using CytoTox 96 NonRadioactive Cytotoxicity Assay. Cell treated with 1% triton X-100 serves as positive control (100% release). Bars represent the mean, and error bars represent the SD (n=3).
To further validate the activity of SC5005 and SC5035 on the membrane of human cells, the integrity of cellular membrane of cells treated with these two compounds was assessed by using LDH release assay. Human HT-29 cells were treated with SC5005 and SC5035 for 1 hour, and then the LDH released from cell into culture medium was assayed.

S. aureus NCTC 8325 [9] = experiment: Membrane integrity (SYTO 9 / propidium iodide staining); assay type: cell-based, Staphylococcus aureus; settings: 4×MIC (Triton X-100: 10%) for 15 minutes
From the text: FIG. 7. Membrane integrity of S. aureus after SC5005, SC5035 and five common antibiotics treatment. […] SYTO 9, a green fluorescence dye, stains chromosome of all bacteria cells, regardless of the membrane integrity. In contrast, propidium iodide (PI), a red fluorescence dye, only stains cell with damaged membrane. Thus, bacteria cell with intact membrane can only be stained by SYTO 9, and cell with perforated membrane will be stained by both fluorescence dyes, showing a yellow color in merged images.
To further validate the action mechanism of SC5005 and SC5035, two fluorescence dyes were used for evaluation of membrane integrity of drug treated S. aureus. The propidium iodide dye only stains cells with perforated membrane, while the SYTO 9 stains all cells in spite of membrane integrity.

[10] = system: clinical isolated VISA strain; experiment: MIC, VISA; assay type: cell-based, vancomycin-intermediate Staphylococcus aureus
VRSA (SJC1200) = experiment: MIC, VRSA; assay type: cell-based, vancomycin-resistant Staphylococcus aureus
[11] = S. epidermidis ATCC 12228, read-out: MIC
[12] = Staphylococcus aureus, NCTC8325, S. aureus NCTC 8325, read-out: MIC
[13] = MRSA (ATCC 43300), read-out: MIC

Compound: CC1(C)S[C@@H]2[C@H](NC(=O)[C@H](N)c3ccccc3)C(=O)N2[C@H]1C(=O)O [Ampicillin]
MIC [1]: > 32 µg/mL
MIC [2, 11]: 32 µg/mL (≈ 91.6 µM)
MIC (S. aureus NCTC 8325 [3]; [12]): 0.25 µg/mL (≈ 0.715 µM)
MIC (MRSA ATCC 33592; MRSA ATCC 33592, read-out: MIC): > 64 µg/mL
MIC (MRSA ATCC 49476; MRSA ATCC 49476, read-out: MIC): > 64 µg/mL
time to over 64-fold MIC change (S. aureus NCTC 8325 [4]): ≤ 27 days
MIC (MRSA SCCmec VT; MRSA SCCmec VT, read-out: MIC): 64 µg/mL (≈ 183 µM)

MIC (MRSA (ATCC 43300) [6]; [13]): 0.5 µg/mL (≈ 0.309 µM)
Compound: CCCCCCCCCC(=O)N[C@@H](Cc1c[nH]c2ccccc12)C(=O)N[C@H](CC(N)=O)C(=O)N[C@@H](CC(=O)O)C(=O)N[C@@H]1C(=O)NCC(=O)N[C@@H](CCCN)C(=O)N[C@@H](CC(=O)O)C(=O)N[C@H](C)C(=O)N[C@@H](CC(=O)O)C(=O)NCC(=O)N[C@H](CO)C(=O)N[C@@H]([C@H](C)CC(=O)O)C(=O)N[C@@H](CC(=O)c2ccccc2N)C(=O)O[C@@H]1C [Daptomycin]
MBEC (MRSA (ATCC 43300) [5]): 1024 mg/L

Compound: CC[C@H]1OC(=O)[C@H](C)[C@@H](O[C@H]2C[C@@](C)(OC)[C@@H](O)[C@H](C)O2)[C@H](C)[C@@H](O[C@@H]2O[C@H](C)C[C@H](N(C)C)[C@H]2O)[C@](C)(O)C[C@@H](C)C(=O)[C@H](C)[C@@H](O)[C@]1(C)O [Erythromycin]
MIC [1]: 4 µg/mL (≈ 5.45 µM)
MIC [2, 11]: 4 µg/mL (≈ 5.45 µM)
MIC (S. aureus NCTC 8325 [3]; [12]): 0.5 µg/mL (≈ 0.681 µM)
MIC (MRSA ATCC 33592; MRSA ATCC 33592, read-out: MIC): > 64 µg/mL
MIC (MRSA ATCC 49476; MRSA ATCC 49476, read-out: MIC): > 64 µg/mL
time to over 64-fold MIC change (S. aureus NCTC 8325 [4]): ≤ 17 days
MIC (MRSA SCCmec VT; MRSA SCCmec VT, read-out: MIC): > 64 µg/mL

MIC (MRSA (ATCC 43300) [6]; [13]): 1 µg/mL (≈ 2.96 µM)
Compound: CC(=O)NC[C@H]1CN(c2ccc(N3CCOCC3)c(F)c2)C(=O)O1 [Linezolid]
MBEC (MRSA (ATCC 43300) [5]): >1024 mg/L
MBEC (MRSA (ATCC 43300) [5]; listed as linezolid): 1024 mg/L

MIC (S. aureus NCTC 8325 [3]; S. aureus NCTC 8325, Table 2): 0.5 µg/mL (≈ 1.37 µM)
IC50 (K-562): 1.78 µg/mL (≈ 4.88 µM)
Compound: CCOC(=O)C1=C(N)Oc2ccc(Cl)cc2C1C(C#N)C(=O)OCC (stereo not shown) [SC79]
IC50 (HEK-293): 2.22 µg/mL (≈ 6.09 µM)

Compound: O=C(Nc1cc(Cl)cc(Cl)c1)C(CCCl)C(=O)Nc1ccc(Cl)c(C(F)(F)F)c1 (stereo not shown) [SC5035, N^1-(4-chloro-3-(trifluoromethyl)phenyl)-2-(2-chloroethyl)-N^3-(3,5-dichlorophenyl)malonamide]
intracellular ATP levels (S. aureus NCTC 8325 [7]): significantly dropped
MIC (S. aureus NCTC 8325 [3]; Staphylococcus aureus, MSSA NCTC 8325, Table 6, read-out: MIC): 0.25 µg/mL (≈ 0.512 µM)
MIC (MRSA ATCC 33592; MRSA ATCC 33592, Table 6, read-out: MIC): 0.25 µg/mL (≈ 0.512 µM)
incorporation signal in DNA, RNA, protein and cell wall biosynthesis (S. aureus NCTC 8325 [8]): lower signal in all four macromolecule biosynthesis pathway
hemolysis of RBC (human red blood cells): no significant hemolysis
LDH level released into culture medium (Human HT-29 cells): no significant increase in the LDH level
propidium iodide staining (membrane integrity) (S. aureus NCTC 8325 [9]): can be stained by propidium iodide

MIC [1]: 0.25 µg/mL (≈ 0.563 µM)
MIC [2, 11]: 8 µg/mL (≈ 18 µM)
MIC (MRSA ATCC 33592; MRSA ATCC 33592, read-out: MIC): > 64 µg/mL
MIC (MRSA ATCC 49476; MRSA ATCC 49476, read-out: MIC): > 64 µg/mL
MIC (MRSA SCCmec VT; MRSA SCCmec VT, read-out: MIC): 32 µg/mL (≈ 72 µM)
Compound: CN(C)[C@@H]1C(O)=C(C(N)=O)C(=O)[C@@]2(O)C(O)=C3C(=O)c4c(O)cccc4[C@@](C)(O)[C@H]3C[C@@H]12 [Tetracycline]

Compound: CN[C@H](CC(C)C)C(=O)N[C@H]1C(=O)N[C@@H](CC(N)=O)C(=O)N[C@H]2C(=O)N[C@H]3C(=O)N[C@H](C(=O)N[C@H](C(=O)O)c4cc(O)cc(O)c4-c4cc3ccc4O)[C@H](O)c3ccc(c(Cl)c3)Oc3cc2cc(c3O[C@@H]2O[C@H](CO)[C@@H](O)[C@H](O)[C@H]2O[C@H]2C[C@](C)(N)[C@H](O)[C@H](C)O2)Oc2ccc(cc2Cl)[C@H]1O [Vancomycin, reference compound]
MIC ([10]; Staphylococcus aureus, VISA): 4 µg/mL (≈ 2.76 µM)
increase in the value of MIC ([10]; VISA compared to vancomycin-susceptible S. aureus (VSSA)): 4 fold
MBEC (MRSA (ATCC 43300) [5]): 1024 mg/L
MBEC (MRSA (ATCC 43300) [5]; listed as vancomycin): > 1024 mg/L
MIC [2]: 1 µg/mL (≈ 0.69 µM)
MIC (S. aureus NCTC 8325 [3]; S. aureus (NCTC 8325), Table 3): 0.5 µg/mL (≈ 0.345 µM)
MIC (S. aureus NCTC 8325 [3]; Staphylococcus aureus, NCTC8325): 0.5 µg/mL (≈ 0.345 µM)
MIC (MRSA ATCC 33592): 1 µg/mL (≈ 0.69 µM)
MIC (MRSA ATCC 49476): 1 µg/mL (≈ 0.69 µM)
MIC (MRSA (ATCC 43300) [6]): 1 µg/mL (≈ 0.69 µM)
fold MIC change (resistance) (S. aureus NCTC 8325 [4]; sub-inhibitory concentration for 30 consecutive days): 4 fold
MIC (MRSA SCCmec VT; MRSA): 1 µg/mL (≈ 0.69 µM)
MIC (VRSA (SJC1200); Staphylococcus aureus, VRSA): 512 µg/mL (≈ 353 µM)
decrease in the susceptibility (VRSA (SJC1200); VRSA compared to VSSA): over five-hundred decrease in the susceptibility

Compound: Triton X-100 [reference compound]
propidium iodide staining (membrane integrity) (S. aureus NCTC 8325 [9]): can be stained by propidium iodide
